From PubChem BioAssay (NCI)
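Briefly, cells in 96-well plates were exposed to five compound concentrations for 48 h, and endpoints were estimated by linear interpolation. Definition used: TGI = concentration required for complete inhibition of growth.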

Legend:
Test in all cases: growth of human tumour cells (NCI), 48 h
[1] = tested on: SR leukemia
[2] = tested on: MDA-N
[3] = tested on: NCI-H460 lung
[4] = tested on: OVCAR-5 ovarian
[5] = tested on: UACC-62 melanoma
[6] = tested on: SF-295 CNS
[7] = tested on: MOLT-4 leukemia
[8] = tested on: T-47D breast
[9] = tested on: LOX IMVI melanoma
[10] = tested on: HOP-62 NSCLC
[11] = tested on: SN12C renal
[12] = tested on: HS 578T breast
[13] = tested on: 786-0 renal
[14] = tested on: MDA-MB-435
[15] = tested on: HOP-92 NSCLC
[16] = tested on: SNB-75 CNS
[17] = tested on: NCI-H23 lung
[18] = tested on: KM12 colon
[19] = tested on: M14 melanoma
[20] = tested on: HCC-2998 colon
[21] = tested on: NCI/ADR-RES ovarian
[22] = tested on: OVCAR-4 ovarian
[23] = tested on: SK-MEL-28 melanoma
[24] = tested on: RPMI-8226 leukemia
[25] = tested on: MCF7 breast
[26] = tested on: CAKI-1 renal
[27] = tested on: MDA-MB-231 breast
[28] = tested on: HCT-116 colon
[29] = tested on: DU-145 prostate
[30] = tested on: TK-10 renal
[31] = tested on: HT29 colon
[32] = tested on: SNB-19 CNS
[33] = tested on: UACC-257 melanoma
[34] = tested on: NCI-H226 lung
[35] = tested on: U251 CNS
[36] = tested on: PC-3 prostate
[37] = tested on: SF-268 CNS
[38] = tested on: COLO 205 colon
[39] = tested on: OVCAR-3 ovarian
[40] = tested on: NCI-H522 lung
[41] = tested on: EKVX NSCLC
[42] = tested on: MALME-3M melanoma
[43] = tested on: BT-549 breast
[44] = tested on: A498 renal
[45] = tested on: SF-539 CNS
[46] = tested on: SK-MEL-2 melanoma
[47] = tested on: OVCAR-8 ovarian
[48] = tested on: K-562 leukemia
[49] = tested on: SK-MEL-5 melanoma
[50] = tested on: UO-31 renal
[51] = tested on: ACHN renal
[52] = tested on: SK-OV-3 ovarian
[53] = tested on: RXF 393 renal
[54] = tested on: A549 NSCLC
[55] = tested on: HCT-15 colon
[56] = tested on: HL-60(TB) leukemia
[57] = tested on: SW-620 colon
[58] = tested on: CCRF-CEM leukemia
[59] = tested on: IGROV1 ovarian

## COc1cccc(CCNc2c(C#N)c3n(c4ccccc4[n+]3C)c3ncccc23)c1
[1]
  TGI: > 100 µM
[2]
  TGI: 11.1 µM
[3]
  TGI: 3.16 µM
[4]
  TGI: 34 µM
[5]
  TGI: > 59.4 µM
[6]
  TGI: 3.67 µM
[7]
  TGI: 7.45 µM
[8]
  TGI: 14.7 µM
[9]
  TGI: 3.08 µM
[10]
  TGI: 43.8 µM
[11]
  TGI: 32.7 µM
[12]
  TGI: 15 µM
[13]
  TGI: 3.35 µM
[14]
  TGI: 45.6 µM
[15]
  TGI: > 58.9 µM
[16]
  TGI: 12.8 µM
[17]
  TGI: > 56.5 µM
[18]
  TGI: 4.53 µM
[19]
  TGI: 3.08 µM
[20]
  TGI: 3.46 µM
[21]
  TGI: > 51 µM
[22]
  TGI: 10.8 µM
[23]
  TGI: 44.1 µM
[24]
  TGI: 6.59 µM
[25]
  TGI: 5.13 µM
[26]
  TGI: > 100 µM
[27]
  TGI: 6.89 µM
[28]
  TGI: 5.3 µM
[29]
  TGI: 11.3 µM
[30]
  TGI: 50.1 µM
[31]
  TGI: 3.14 µM
[32]
  TGI: 18.8 µM
[33]
  TGI: 46.3 µM
[34]
  TGI: 45.9 µM
[35]
  TGI: > 21.3 µM
[36]
  TGI: 31.4 µM
[37]
  TGI: 38.5 µM
[38]
  TGI: 10.5 µM
[39]
  TGI: 48 µM
[40]
  TGI: 10.3 µM
[41]
  TGI: 36.5 µM
[42]
  TGI: 32.6 µM
[43]
  TGI: 49.5 µM
[44]
  TGI: 57 µM
[45]
  TGI: 3.55 µM
[46]
  TGI: 43.3 µM
[47]
  TGI: 3.87 µM
[48]
  TGI: > 100 µM
[49]
  TGI: 28.8 µM
[50]
  TGI: 12 µM
[51]
  TGI: 36.1 µM
[52]
  TGI: 42.1 µM
[53]
  TGI: 38.2 µM
[54]
  TGI: 4.04 µM
[55]
  TGI: 3.74 µM

## CC#CCCCC1(C)CCNC1=S (stereo unspecified)
[1]
  TGI: > 10 µM
[2]
  TGI: > 10 µM
[3]
  TGI: > 10 µM
[4]
  TGI: > 10 µM
[6]
  TGI: > 10 µM
[7]
  TGI: > 10 µM
[9]
  TGI: > 10 µM
[56]
  TGI: > 10 µM
[11]
  TGI: > 10 µM
[12]
  TGI: > 10 µM
[13]
  TGI: > 10 µM
[14]
  TGI: > 10 µM
[15]
  TGI: > 10 µM
[16]
  TGI: > 10 µM
[17]
  TGI: > 10 µM
[18]
  TGI: > 10 µM
[19]
  TGI: > 10 µM
[20]
  TGI: > 10 µM
[22]
  TGI: > 10 µM
[57]
  TGI: > 10 µM
[58]
  TGI: > 10 µM
[25]
  TGI: > 10 µM
[29]
  TGI: > 10 µM
[30]
  TGI: > 10 µM
[31]
  TGI: > 10 µM
[32]
  TGI: > 10 µM
[33]
  TGI: > 10 µM
[34]
  TGI: > 10 µM
[35]
  TGI: > 10 µM
[36]
  TGI: > 10 µM
[37]
  TGI: > 10 µM
[39]
  TGI: > 10 µM
[40]
  TGI: > 10 µM
[41]
  TGI: > 10 µM
[42]
  TGI: > 10 µM
[43]
  TGI: > 10 µM
[45]
  TGI: > 10 µM
[46]
  TGI: > 10 µM
[47]
  TGI: > 10 µM
[48]
  TGI: > 10 µM
[50]
  TGI: > 10 µM
[51]
  TGI: > 10 µM
[52]
  TGI: > 10 µM
[53]
  TGI: > 10 µM
[54]
  TGI: > 10 µM
[55]
  TGI: > 10 µM

## COc1ccc(C(O)c2ccccn2)cc1 (stereo unspecified)
[1]
  TGI: > 100 µM
[2]
  TGI: > 100 µM
[3]
  TGI: > 100 µM
[4]
  TGI: > 100 µM
[5]
  TGI: > 100 µM
[6]
  TGI: > 100 µM
[7]
  TGI: > 100 µM
[8]
  TGI: > 100 µM
[9]
  TGI: > 100 µM
[10]
  TGI: > 100 µM
[11]
  TGI: > 100 µM
[12]
  TGI: > 100 µM
[13]
  TGI: > 100 µM
[14]
  TGI: > 100 µM
[15]
  TGI: > 100 µM
[16]
  TGI: > 100 µM
[17]
  TGI: > 100 µM
[18]
  TGI: > 100 µM
[19]
  TGI: > 100 µM
[59]
  TGI: > 100 µM
[21]
  TGI: > 100 µM
[22]
  TGI: > 100 µM
[23]
  TGI: > 100 µM
[57]
  TGI: > 100 µM
[24]
  TGI: > 100 µM
[25]
  TGI: > 100 µM
[26]
  TGI: > 100 µM
[27]
  TGI: > 100 µM
[28]
  TGI: > 100 µM
[29]
  TGI: > 100 µM
[30]
  TGI: > 100 µM
[31]
  TGI: > 100 µM
[32]
  TGI: > 100 µM
[33]
  TGI: > 100 µM
[34]
  TGI: > 100 µM
[35]
  TGI: > 100 µM
[36]
  TGI: > 100 µM
[37]
  TGI: > 100 µM
[38]
  TGI: > 100 µM
[39]
  TGI: > 100 µM
[40]
  TGI: > 100 µM
[41]
  TGI: > 100 µM
[42]
  TGI: > 100 µM
[43]
  TGI: > 100 µM
[44]
  TGI: > 100 µM
[45]
  TGI: > 100 µM
[46]
  TGI: > 100 µM
[47]
  TGI: > 100 µM
[48]
  TGI: > 100 µM
[49]
  TGI: > 100 µM
[51]
  TGI: > 100 µM
[52]
  TGI: > 100 µM
[53]
  TGI: > 100 µM
[54]
  TGI: > 100 µM
[55]
  TGI: > 100 µM

## CNC(=O)CNC(=O)N(C[C@@H]1CCCN1C(=O)[C@H](CC(C)C)NC(=O)OC(C)(C)C)C(C)C
[1]
  TGI: > 100 µM
[2]
  TGI: > 100 µM
[3]
  TGI: > 100 µM
[4]
  TGI: > 100 µM
[5]
  TGI: > 100 µM
[6]
  TGI: > 100 µM
[7]
  TGI: > 100 µM
[8]
  TGI: > 100 µM
[9]
  TGI: > 100 µM
[56]
  TGI: > 100 µM
[10]
  TGI: > 100 µM
[11]
  TGI: > 100 µM
[12]
  TGI: > 100 µM
[13]
  TGI: > 100 µM
[14]
  TGI: > 100 µM
[16]
  TGI: > 100 µM
[17]
  TGI: > 100 µM
[18]
  TGI: > 100 µM
[19]
  TGI: > 100 µM
[20]
  TGI: > 100 µM
[59]
  TGI: > 100 µM
[21]
  TGI: > 100 µM
[22]
  TGI: > 100 µM
[23]
  TGI: > 100 µM
[57]
  TGI: > 100 µM
[24]
  TGI: > 100 µM
[58]
  TGI: > 100 µM
[25]
  TGI: > 100 µM
[26]
  TGI: > 100 µM
[27]
  TGI: > 100 µM
[28]
  TGI: > 100 µM
[29]
  TGI: > 100 µM
[31]
  TGI: > 100 µM
[32]
  TGI: > 100 µM
[34]
  TGI: > 100 µM
[35]
  TGI: > 100 µM
[36]
  TGI: > 100 µM
[37]
  TGI: > 100 µM
[38]
  TGI: > 100 µM
[39]
  TGI: > 100 µM
[40]
  TGI: > 100 µM
[41]
  TGI: > 100 µM
[42]
  TGI: > 100 µM
[43]
  TGI: > 100 µM
[44]
  TGI: > 100 µM
[46]
  TGI: > 100 µM
[47]
  TGI: > 100 µM
[48]
  TGI: > 100 µM
[49]
  TGI: > 100 µM
[50]
  TGI: > 100 µM
[51]
  TGI: > 100 µM
[52]
  TGI: > 100 µM
[53]
  TGI: > 100 µM
[54]
  TGI: > 100 µM
[55]
  TGI: > 100 µM
